{"source": "PubChem BioAssay (NCI)", "assay_in_all_cases": "NCI anticancer screen, dose series, 48 h", "key": {"786-0 renal": {"tested_on": "786-0 renal"}, "A498 renal": {"tested_on": "A498 renal"}, "A549 NSCLC": {"tested_on": "A549 NSCLC"}, "ACHN renal": {"tested_on": "ACHN renal"}, "BT-549 breast": {"tested_on": "BT-549 breast"}, "CAKI-1 renal": {"tested_on": "CAKI-1 renal"}, "CCRF-CEM leukemia": {"tested_on": "CCRF-CEM leukemia"}, "COLO 205 colon": {"tested_on": "COLO 205 colon"}, "DU-145 prostate": {"tested_on": "DU-145 prostate"}, "EKVX NSCLC": {"tested_on": "EKVX NSCLC"}, "HCC-2998 colon": {"tested_on": "HCC-2998 colon"}, "HCT-116 colon": {"tested_on": "HCT-116 colon"}, "HOP-62 NSCLC": {"tested_on": "HOP-62 NSCLC"}, "HOP-92 NSCLC": {"tested_on": "HOP-92 NSCLC"}, "IGROV1 ovarian": {"tested_on": "IGROV1 ovarian"}, "K-562 leukemia": {"tested_on": "K-562 leukemia"}, "M14 melanoma": {"tested_on": "M14 melanoma"}, "MALME-3M melanoma": {"tested_on": "MALME-3M melanoma"}, "MCF7 breast": {"tested_on": "MCF7 breast"}, "MDA-MB-231 breast": {"tested_on": "MDA-MB-231 breast"}, "NCI-H226 lung": {"tested_on": "NCI-H226 lung"}, "NCI-H23 lung": {"tested_on": "NCI-H23 lung"}, "NCI-H522 lung": {"tested_on": "NCI-H522 lung"}, "NCI/ADR-RES ovarian": {"tested_on": "NCI/ADR-RES ovarian"}, "OVCAR-3 ovarian": {"tested_on": "OVCAR-3 ovarian"}, "OVCAR-4 ovarian": {"tested_on": "OVCAR-4 ovarian"}, "OVCAR-5 ovarian": {"tested_on": "OVCAR-5 ovarian"}, "OVCAR-8 ovarian": {"tested_on": "OVCAR-8 ovarian"}, "PC-3 prostate": {"tested_on": "PC-3 prostate"}, "RPMI-8226 leukemia": {"tested_on": "RPMI-8226 leukemia"}, "RXF 393 renal": {"tested_on": "RXF 393 renal"}, "SF-268 CNS": {"tested_on": "SF-268 CNS"}, "SF-295 CNS": {"tested_on": "SF-295 CNS"}, "SF-539 CNS": {"tested_on": "SF-539 CNS"}, "SK-MEL-2 melanoma": {"tested_on": "SK-MEL-2 melanoma"}, "SK-MEL-28 melanoma": {"tested_on": "SK-MEL-28 melanoma"}, "SK-OV-3 ovarian": {"tested_on": "SK-OV-3 ovarian"}, "SN12C renal": {"tested_on": "SN12C renal"}, "SNB-19 CNS": {"tested_on": "SNB-19 CNS"}, "SNB-75 CNS": {"tested_on": "SNB-75 CNS"}, "T-47D breast": {"tested_on": "T-47D breast"}, "TK-10 renal": {"tested_on": "TK-10 renal"}, "U251 CNS": {"tested_on": "U251 CNS"}, "UACC-62 melanoma": {"tested_on": "UACC-62 melanoma"}, "UO-31 renal": {"tested_on": "UO-31 renal"}}, "note": "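Assay format: 96-well plates, 48-hour exposure. GI50 marks 50% less growth. Definition used: TGI = concentration required for complete inhibition of growth.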", "data": [{"smiles": "CN1CCN(C(=O)COc2ccc(/C=C3\\CC4C5CC=C6CC(Cl)CCC6(C)C5CCC4(C)C3=O)cc2)CC1", "note": "(stereo not given)", "values": [{"measurement": "GI50", "setting": "786-0 renal", "value": 88.1, "unit": "µM"}, {"measurement": "TGI", "setting": "786-0 renal", "value": "> 100", "unit": "µM"}, {"measurement": "GI50", "setting": "A498 renal", "value": "> 100", "unit": "µM"}, {"measurement": "TGI", "setting": "A498 renal", "value": "> 100", "unit": "µM"}, {"measurement": "GI50", "setting": "A549 NSCLC", "value": "> 100", "unit": "µM"}, {"measurement": "TGI", "setting": "A549 NSCLC", "value": "> 100", "unit": "µM"}, {"measurement": "GI50", "setting": "ACHN renal", "value": "> 100", "unit": "µM"}, {"measurement": "TGI", "setting": "ACHN renal", "value": "> 100", "unit": "µM"}, {"measurement": "GI50", "setting": "BT-549 breast", "value": 96.1, "unit": "µM"}, {"measurement": "TGI", "setting": "BT-549 breast", "value": "> 100", "unit": "µM"}, {"measurement": "GI50", "setting": "CAKI-1 renal", "value": "> 100", "unit": "µM"}, {"measurement": "TGI", "setting": "CAKI-1 renal", "value": "> 100", "unit": "µM"}, {"measurement": "GI50", "setting": "CCRF-CEM leukemia", "value": 3.94, "unit": "µM"}, {"measurement": "TGI", "setting": "CCRF-CEM leukemia", "value": "> 100", "unit": "µM"}, {"measurement": "GI50", "setting": "COLO 205 colon", "value": "> 100", "unit": "µM"}, {"measurement": "TGI", "setting": "COLO 205 colon", "value": "> 100", "unit": "µM"}, {"measurement": "GI50", "setting": "DU-145 prostate", "value": "> 100", "unit": "µM"}, {"measurement": "TGI", "setting": "DU-145 prostate", "value": "> 100", "unit": "µM"}, {"measurement": "GI50", "setting": "EKVX NSCLC", "value": "> 100", "unit": "µM"}, {"measurement": "TGI", "setting": "EKVX NSCLC", "value": "> 100", "unit": "µM"}, {"measurement": "GI50", "setting": "HCC-2998 colon", "value": "> 100", "unit": "µM"}, {"measurement": "TGI", "setting": "HCC-2998 colon", "value": "> 100", "unit": "µM"}, {"measurement": "GI50", "setting": "HCT-116 colon", "value": 3.08, "unit": "µM"}, {"measurement": "TGI", "setting": "HCT-116 colon", "value": "> 100", "unit": "µM"}, {"measurement": "GI50", "setting": "HOP-62 NSCLC", "value": 36.4, "unit": "µM"}, {"measurement": "TGI", "setting": "HOP-62 NSCLC", "value": "> 100", "unit": "µM"}, {"measurement": "GI50", "setting": "HOP-92 NSCLC", "value": 10.4, "unit": "µM"}, {"measurement": "TGI", "setting": "HOP-92 NSCLC", "value": "> 100", "unit": "µM"}, {"measurement": "GI50", "setting": "IGROV1 ovarian", "value": "> 100", "unit": "µM"}, {"measurement": "TGI", "setting": "IGROV1 ovarian", "value": "> 100", "unit": "µM"}, {"measurement": "GI50", "setting": "K-562 leukemia", "value": 2.61, "unit": "µM"}, {"measurement": "TGI", "setting": "K-562 leukemia", "value": "> 100", "unit": "µM"}, {"measurement": "GI50", "setting": "M14 melanoma", "value": "> 100", "unit": "µM"}, {"measurement": "TGI", "setting": "M14 melanoma", "value": "> 100", "unit": "µM"}, {"measurement": "GI50", "setting": "MALME-3M melanoma", "value": "> 100", "unit": "µM"}, {"measurement": "TGI", "setting": "MALME-3M melanoma", "value": "> 100", "unit": "µM"}, {"measurement": "GI50", "setting": "MCF7 breast", "value": "> 100", "unit": "µM"}, {"measurement": "TGI", "setting": "MCF7 breast", "value": "> 100", "unit": "µM"}, {"measurement": "GI50", "setting": "MDA-MB-231 breast", "value": "> 100", "unit": "µM"}, {"measurement": "TGI", "setting": "MDA-MB-231 breast", "value": "> 100", "unit": "µM"}, {"measurement": "GI50", "setting": "NCI-H226 lung", "value": "> 100", "unit": "µM"}, {"measurement": "TGI", "setting": "NCI-H226 lung", "value": "> 100", "unit": "µM"}, {"measurement": "GI50", "setting": "NCI-H23 lung", "value": "> 100", "unit": "µM"}, {"measurement": "TGI", "setting": "NCI-H23 lung", "value": "> 100", "unit": "µM"}, {"measurement": "GI50", "setting": "NCI-H522 lung", "value": "> 100", "unit": "µM"}, {"measurement": "TGI", "setting": "NCI-H522 lung", "value": "> 100", "unit": "µM"}, {"measurement": "GI50", "setting": "NCI/ADR-RES ovarian", "value": "> 100", "unit": "µM"}, {"measurement": "TGI", "setting": "NCI/ADR-RES ovarian", "value": "> 100", "unit": "µM"}, {"measurement": "GI50", "setting": "OVCAR-3 ovarian", "value": "> 100", "unit": "µM"}, {"measurement": "TGI", "setting": "OVCAR-3 ovarian", "value": "> 100", "unit": "µM"}, {"measurement": "GI50", "setting": "OVCAR-4 ovarian", "value": "> 100", "unit": "µM"}, {"measurement": "TGI", "setting": "OVCAR-4 ovarian", "value": "> 100", "unit": "µM"}, {"measurement": "GI50", "setting": "OVCAR-5 ovarian", "value": "> 100", "unit": "µM"}, {"measurement": "TGI", "setting": "OVCAR-5 ovarian", "value": "> 100", "unit": "µM"}, {"measurement": "GI50", "setting": "OVCAR-8 ovarian", "value": "> 100", "unit": "µM"}, {"measurement": "TGI", "setting": "OVCAR-8 ovarian", "value": "> 100", "unit": "µM"}, {"measurement": "GI50", "setting": "PC-3 prostate", "value": "> 100", "unit": "µM"}, {"measurement": "TGI", "setting": "PC-3 prostate", "value": "> 100", "unit": "µM"}, {"measurement": "GI50", "setting": "RPMI-8226 leukemia", "value": 6.9, "unit": "µM"}, {"measurement": "TGI", "setting": "RPMI-8226 leukemia", "value": "> 100", "unit": "µM"}, {"measurement": "GI50", "setting": "RXF 393 renal", "value": 14.3, "unit": "µM"}, {"measurement": "TGI", "setting": "RXF 393 renal", "value": "> 100", "unit": "µM"}, {"measurement": "GI50", "setting": "SF-268 CNS", "value": "> 100", "unit": "µM"}, {"measurement": "TGI", "setting": "SF-268 CNS", "value": "> 100", "unit": "µM"}, {"measurement": "GI50", "setting": "SF-295 CNS", "value": "> 100", "unit": "µM"}, {"measurement": "TGI", "setting": "SF-295 CNS", "value": "> 100", "unit": "µM"}, {"measurement": "GI50", "setting": "SF-539 CNS", "value": "> 100", "unit": "µM"}, {"measurement": "TGI", "setting": "SF-539 CNS", "value": "> 100", "unit": "µM"}, {"measurement": "GI50", "setting": "SK-MEL-2 melanoma", "value": "> 100", "unit": "µM"}, {"measurement": "TGI", "setting": "SK-MEL-2 melanoma", "value": "> 100", "unit": "µM"}, {"measurement": "GI50", "setting": "SK-MEL-28 melanoma", "value": "> 100", "unit": "µM"}, {"measurement": "TGI", "setting": "SK-MEL-28 melanoma", "value": "> 100", "unit": "µM"}, {"measurement": "GI50", "setting": "SK-OV-3 ovarian", "value": "> 100", "unit": "µM"}, {"measurement": "TGI", "setting": "SK-OV-3 ovarian", "value": "> 100", "unit": "µM"}, {"measurement": "GI50", "setting": "SN12C renal", "value": "> 100", "unit": "µM"}, {"measurement": "TGI", "setting": "SN12C renal", "value": "> 100", "unit": "µM"}, {"measurement": "GI50", "setting": "SNB-19 CNS", "value": "> 100", "unit": "µM"}, {"measurement": "TGI", "setting": "SNB-19 CNS", "value": "> 100", "unit": "µM"}, {"measurement": "GI50", "setting": "SNB-75 CNS", "value": 19, "unit": "µM"}, {"measurement": "TGI", "setting": "SNB-75 CNS", "value": 56.7, "unit": "µM"}, {"measurement": "GI50", "setting": "T-47D breast", "value": "> 100", "unit": "µM"}, {"measurement": "TGI", "setting": "T-47D breast", "value": "> 100", "unit": "µM"}, {"measurement": "GI50", "setting": "TK-10 renal", "value": 27.4, "unit": "µM"}, {"measurement": "TGI", "setting": "TK-10 renal", "value": "> 100", "unit": "µM"}, {"measurement": "GI50", "setting": "U251 CNS", "value": 3.33, "unit": "µM"}, {"measurement": "TGI", "setting": "U251 CNS", "value": "> 100", "unit": "µM"}, {"measurement": "GI50", "setting": "UACC-62 melanoma", "value": "> 100", "unit": "µM"}, {"measurement": "TGI", "setting": "UACC-62 melanoma", "value": "> 100", "unit": "µM"}, {"measurement": "GI50", "setting": "UO-31 renal", "value": "> 100", "unit": "µM"}, {"measurement": "TGI", "setting": "UO-31 renal", "value": "> 100", "unit": "µM"}]}]}
